Measurements as given in patent US7297523B2, “Human elongase genes and uses thereof” (Xenon Pharmaceuticals Inc., priority 2000, dated 2007).

Tests used:
[1] = target: T1, ELG3/V5-His (Homo sapiens, UniProt Q9NXB9); assay: Elongation of [1-14C]20:5n-3 in microsomes of yeast expressing ELG3/V5-His; assay type: biochemical; conditions: for % conversion 24:5n-3 / % conversion 22:5n-3 / % conversion Total: substrate [1-14C]20:5n-3 7.2 μM; for % conversion 24:5n-3: control 5.0; for % conversion 22:5n-3: control 13.7; for % conversion Total: control 18.7
T1 construct: made in house; host or cells: Saccharomyces cerevisiae (INVSc1), microsomal fraction
T1 sequence (Q9NXB9 1-296): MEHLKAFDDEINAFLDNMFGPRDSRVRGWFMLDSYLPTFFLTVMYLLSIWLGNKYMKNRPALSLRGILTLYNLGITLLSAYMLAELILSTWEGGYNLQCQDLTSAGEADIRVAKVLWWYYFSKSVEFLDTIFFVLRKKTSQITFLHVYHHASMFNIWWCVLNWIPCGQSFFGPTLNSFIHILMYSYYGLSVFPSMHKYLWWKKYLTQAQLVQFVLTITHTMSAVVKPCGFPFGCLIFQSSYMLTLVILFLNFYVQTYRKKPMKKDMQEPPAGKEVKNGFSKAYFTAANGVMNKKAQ
Method: A sulphoxide derivative of S-propylbutylethylthiocarbamate (pebulate sulphoxide) was obtained from Zeneca Agrochemicals, UK, and dissolved in ethanol at a concentration of 5 mM.
A 51 culture of Saccharomyces cerevisiae transformed with pTh1017.1 encoding ELG3/V5-His was started with a cell density of approximately 3.2×10^5 cells/ml (O.D.600 0.4) using SC-U medium with 1% raffinose. After 8 h of incubation at 30° C. in an orbital shaker at 270 rpm, galactose was added to a final concentration of 2%. Yeast were incubated for an additional 12 h until they were harvested by centrifugation at 2060×g for 10 minutes at 4° C. and washed with water. The cell pellet was resuspended in ⅓ of its volume in a pH 7.2 isolation buffer (80 mM Hepes-KOH, 10 mM KCl, 320 mM sucrose, 2 mM PMSF and a protease inhibitor cocktail). The cell suspension was poured into a mortar containing liquid N2 and ground with sand using a ceramic pestle. The yeast powder was transferred to a conical test tube, to which ⅔ of the pellet volume of isolation buffer was added. The sand was removed by centrifugation at 228×g for 1 min and the suspension centrifuged at 10,000×g for 20 min to separate cell debris, nuclei and mitochondria. The supernatant was centrifuged at 106,000×g for 1.5 h to obtain the microsomal pellet, which was resuspended in storage buffer (80 mM Hepes-KOH, 10 mM KCl, 320 mM sucrose, 1 mM PMSF and a protease inhibitor cocktail) to a final protein concentration of 20 μg/μl. The protein concentration was measured by the method of Lowry et al. (1951, .J Biol. Chem., 193: 265-275) with bovine serum albumin as standard.
The activity of ELG3/V5-His was determined by measuring the conversion of [1-^14C]20:5n-3 to [1-^14C]22:5n-3 and [1-^14C]24:5n-3. Reactions were started by adding 500 μg of yeast microsomal protein to pre-incubated tubes containing 0.20 μCi of the substrate fatty acid at a final concentration of 7.2 μM in 0.25 ml of 80 mM Hepes-KOH (pH 7.2) with 43 mM MgCl2, 1.0 mM ATP,500 μM NADPH, 10 μM coenzyme A, 100 μM […] (as lithium salt) and pebulate sulphoxide at concentrations that ranged between 1 to 100 μM. The tubes were vortexed vigorously and after 30 min incubation at 37° C. in a shaking water bath, the reactions were stopped by the addition of 2 ml of 10% (w/v) KOH in ethanol. Lipids in the incubation mixture were saponified at 80° C. for 45 min under N2. The samples were then left in ice for 5 min before acidification with 750 μl of concentrated HCl. […] The fatty acid methyl esters were analyzed by HPLC as described in Example 19.
The enzyme activity was expressed in percent conversion of radiolabelled 20:5n-3 into its elongation products. Alternatively, it can be expressed in pmol of the fatty acids produced/mg microsomal protein/min.

[2] = system: rat liver elongase; assay: Elongation of [1-14C]20:5n-3 in rat liver microsomes; assay type: biochemical; conditions: for % conversion 24:6n-3: delta-6-desaturation product of 24:5n-3, control 9.1; for % conversion 22:5n-3 / % conversion 24:5n-3 / % conversion Total: substrate [1-14C]20:5n-3; for % conversion 22:5n-3: control 11.6; for % conversion 24:5n-3: control 39.7; for % conversion Total: control 60.4
Method: Wistar rats under light halothane (15% in mineral oil) anesthesia were sacrificed by exsanguination during periods of high enzyme activity. Livers were immediately rinsed with cold 0.9% NaCl solution, weighed and minced with scissors. All procedures were performed at 4° C. unless specified-otherwise. Livers were homogenized in a solution (1:3 w/v) containing 0.25 M sucrose, 62 mM potassium phosphate buffer (pH 7.0), 0.15 M KCl, 1.5 mM N-acetylcysteine, 5 mM MgCl2, and 0.1 mM EDTA using 4 strokes of a Potter-Elvehjem tissue homogenizer. The homogenate was centrifuged at 10,400×g for 20 min to pellet mitochondria and cellular debris. The supernatant was filtered through a 3-layer cheesecloth and centrifuged at 105,000×g for 60 min. The microsomal pellet was gently resuspended in the same homogenization solution with a small glass/teflon homogenizer and stored at −80° C. The absence of mitochondrial contamination was enzymatically assessed as described elsewhere (Kilberg, M. S. and Christensen H. N., 1979, Biochemistry, 18: 1525-1530). The protein concentration was measured by the method of Lowry et al (1951, J. Biol. Chem., 193: 265-275) with bovine serum albumin as standard.
Reactions were performed using 500 μg of rat liver microsomal protein with the same concentrations of pebulate sulphoxide, radiolabelled fatty acid, conditions and procedures described in Example 21.
The enzyme activity was expressed in percent conversion of radiolabelled 20:5n-3 into its elongation and final delta-6-desaturation products (i.e., 22:5n-3, 24:5n-3 and 24:6n-3).

[3] = system: 20:5n-3; assay: Elongation of [1-14C]20:5n-3 in yeast expressing human elongases (RP-HPLC); conditions: untagged elongase, 25 μM substrate
From the text: (§1) For the expression of ELG1, ELG2, ELG3, ELG4, ELG5, ELG6 or ELG7 the yeast were transformed with pTh1009.1, pTh1014.1, pTh1015.1, pTh1021.1, pTh1018.1, pTh1041.1 or pTh1044.1, respectively. For the expression of ELG1/V5-His, ELG2/V5-His, ELG3/V5-His, ELG4/V5-His, ELG5/V5-His, ELG6/V5 -His or ELG7/V5-His the yeast were transformed with pTh1009.2, pTh1014.2, pTh1017.1, pTh1021.2, pTh1019.1, pTh1042.1 or pTh1045.1, respectively. Recombinant yeast cells were selected on SC-U medium.
(§2) Transformed yeast (approximately 3.2×10^6 cells/ml; O.D.600 0.4) were incubated in a 125 ml Erlenmeyer containing 10 ml of SC-U medium with 1% raffinose, 1% tergitol and 25 μM of the lithium salts of either [1-^14C]18:3n-3 (1 μCi), [1-^14C]18:3n-6 (1 μCi), [1-^14C]20:4n-6 (2 μCi), or [1-^14C]20:5n-3 (2 μCi). After 4 h incubation in an orbital incubator at 270 rpm and 30° C., cells reached the log phase and the transgene, expression was induced with galactose 30° C., cells reached the log phase and the transgene expression was induced with galactose (2% final concentration). The yeast were incubated for an additional 19 h and then harvested by centrifugation at 5000×g for 10 minutes at 4° C.
(§3) Cells were washed with Tris-HCl buffer (100 mM, pH 8.0) containing 0.1% BSA and total lipids were extracted as described below. The radioactivity from aliquots of the incubation medium, supernatant and cells was determined by liquid scintillation counting using a LS6500-Scintillation System (Beckman).
Alternatively, cells were resuspended in 1.5 ml of water and saponified with 2 ml of 10% KOH in ethanol. The total lipid extracts or the free fatty acids from the saponified samples were methylated using boron trifluoride in methanol at 90° C. for 30 min. The resultant methyl esters (FAME) were analyzed as described below. […]

[4] = system: 20:4n-6; assay: Elongation of [1-14C]20:4n-6 in yeast expressing human elongases (RP-HPLC); conditions: for Percent Elongation of 20:4n-6 to 22:4: product 22:4n-6
From the text: as §1, §2, §3
(§4) Alternatively, cells were resuspended in 1.5 ml of water and saponified with 2 ml of 10% KOH in ethanol. The total lipid extracts or the free fatty acids from the saponified samples were methylated using boron trifluoride in methanol at 90° C. for 30 min. The resultant methyl esters (FAME) were analyzed as described below.
(§5) Analyses of radiolabelled FAME were carried out on a Hewlett Packard 1090, series II chromatograph equipped with a diode array detector set at 205 nm, a radioisotope detector (model 171, Beckman, CA) with a solid scintillation cartridge (97% efficiency for ^14C-detection) and a reverse phase ODS (C-18) Beckman column (250 mm×4.6 mm i.d.; 5 μm particle size) attached to a pre-column with a μBondapak C-18 (Beckman) insert. FAME were separated isocratically with acetonitrile/water (95.5 v/v) at a flow rate of 1 ml/min and were identified by comparison with authentic standards. Alternatively, the eluted FAME were collected and the solvent evaporated. FAME were re-dissolved in hexane for further analysis by gas chromatography.

[5] = system: 18:3n-3; assay: Elongation of [1-14C]18:3n-3 in yeast expressing human elongases (RP-HPLC); conditions: for Percent Elongation of 18:3n-3 to 20:3: product 20:3n-3
From the text: as §1, §2, §3, §4, §5

[6] = system: 18:3n-6; assay: Elongation of [1-14C]18:3n-6 in yeast expressing human elongases (RP-HPLC); conditions: untagged elongase, 25 μM substrate; for Percent Elongation of 18:3n-6 to 20:3: product 20:3n-6
From the text: as §1, §2, §3, §4, §5

[7] = untagged elongase, 25 μM substrate

Molecule: CCCCN(CC)C(=O)[S+]([O-])CCC (centres unmarked) [Pebulate sulphoxide, sulphoxide derivative of S-propylbutylethylthiocarbamate]
- % conversion 24:5n-3 ([1]; 1 μM): 5.6%
- % conversion 22:5n-3 ([1]; 1 μM): 13.8%
- % conversion Total ([1]; 1 μM): 19.4%
- % conversion 24:5n-3 ([1]; 10 μM): 6.6%
- % conversion 22:5n-3 ([1]; 10 μM): 12.8%
- % conversion Total ([1]; 10 μM): 19.4%
- % conversion 24:5n-3 ([1]; 50 μM): 4.6%
- % conversion 22:5n-3 ([1]; 50 μM): 11.3%
- % conversion Total ([1]; 50 μM): 15.9%
- reduction of elongation (ELG3/V5-His activity) ([1]; 100 μM, 20:5n-3 as substrate): approximately 27%
- % conversion 24:5n-3 ([1]; 100 μM): 4.3%
- % conversion 22:5n-3 ([1]; 100 μM): 9.4%
- % conversion Total ([1]; 100 μM): 13.7%
- % conversion 24:6n-3 ([2]; 1 μM): 9.6%
- % conversion 22:5n-3 ([2]; 1 μM): 12.5%
- % conversion 24:5n-3 ([2]; 1 μM): 47.5%
- % conversion Total ([2]; 1 μM): 69.3%
- % conversion 24:6n-3 ([2]; 10 μM): 10.9%
- % conversion 22:5n-3 ([2]; 10 μM): 12.5%
- % conversion 24:5n-3 ([2]; 10 μM): 47.2%
- % conversion Total ([2]; 10 μM): 70.7%
- % conversion 24:6n-3 ([2]; 50 μM): 7.9%
- % conversion 22:5n-3 ([2]; 50 μM): 12.2%
- % conversion 24:5n-3 ([2]; 50 μM): 48.7%
- % conversion Total ([2]; 50 μM): 68.8%
- reduction of elongation (rat liver elongase activity) ([2]; 100 μM, 20:5n-3 as substrate): approximately 30%
- % conversion 24:6n-3 ([2]; 100 μM): 4.5%
- % conversion 22:5n-3 ([2]; 100 μM): 10.2%
- % conversion 24:5n-3 ([2]; 100 μM): 28.0%
- % conversion Total ([2]; 100 μM): 42.7%

B1: ELG4: human PUFA elongase (SEQ ID NO: 5) expressed in yeast from plasmid pTh1021.1 (protein)
chain: MAFSDLTSRTVHLYDNWIKDADPRVEDWLLMSSPLPQTILLGFYVYFVTSLGPKLMENRKPFELKKAMITYNFFIVLFSVYMCYEFVMSGWGIGYSFRCDIVDYSRSPTALRMARTCWLYYFSKFIELLDTIFFVLRKKNSQVTFLHVFHHTIMPWTWWFGVKFAAGGLGTFHALLNTAVHVVMYSYYGLSALGPAYQKYLWWKKYLTSLQLVQFVIVAIHISQFFFMEDCKYQFPVFACIIMSYSFMFLLLFLHFWYRAYTKGQRLPKTVKNGTCKNKDN
modifications: human
- Percent Elongation of 20:5n-3 to 22:5 ([3]; product 22:5n-3): 15%
- Percent Elongation of 20:5n-3 to 24:5 ([3]; product 24:5n-3): 3%
- Percent Elongation of 20:4n-6 to 22:4 ([4]; V5-His tagged elongase): 12%
- Percent Elongation of 20:4n-6 to 22:4 [4, 7]: 24%
- Percent Elongation of 20:4n-6 to 24:4 ([4]; untagged elongase, 25 μM substrate, product 24:4n-6): 2%
- Percent Elongation of 18:3n-3 to 20:3 [5, 7]: 10%
- Percent Elongation of 18:3n-3 to 22:3 ([5]; untagged elongase, 25 μM substrate, product 22:3n-3): 4%
- Percent Elongation of 18:3n-6 to 20:3 [6]: 20%
- Percent Elongation of 18:3n-6 to 22:3 ([6]; product 22:3n-6): 4%

B2: ELG6: human PUFA elongase (SEQ ID NO: 9) expressed in yeast from plasmid pTh1041.1 (protein)
chain: MVTAMNVSHEVNQLFQPYNFELSKDMRPFFEEYWATSFPIALIYLVLIAVGQNYMKERKGFNLQGPLILWSFCLAIFSILGAVRMWGIMGTVLLTGGLKQTVCFINFIDNSTVKFWSWVFLLSKVIELGDTAFIILRKRPLIFIHWYHHSTVLVYTSFGYKNKVPAGGWFVTMNFGVHAIMYTYYTLKAANVKPPKMLPMLITSLQILQMFVGAIVSILTYIWRQDQGCHTTMEHLFWSFILYMTYFILFAHFFCQTYIRPKVKAKTKSQ
modifications: human
- Percent Elongation of 18:3n-3 to 20:3 ([5]; V5-His tagged elongase): 3%
- Percent Elongation of 18:3n-3 to 20:3 [5, 7]: 3%
- Percent Elongation of 18:3n-6 to 20:3 [6]: 2%

B3: ELG7: human PUFA elongase (SEQ ID NO: 12) expressed in yeast from plasmid pTh1044.1 (protein)
chain: MGLLDSEPGSVLNVVSTALNDTVEFYRWTWSIADKRVENWPLMQSPWPTLSISTLYLLFVWLGPKWMKDREPFQMRLVLIIYNFGMVLLNLFIFRELFMGSYNAGYSYICQSVDYSNNVHEVRIAAALWWYFVSKGVEYLDTVFFILRKKNNQVSFLHVYHHCTMFTLWWIGIKWVAGGQAFFGAQLNSFIHVIMYSYYGLTAFGPWIQKYLWWKRYLTMLQLIQFHVTIGHTALSLYTDCPFPKWMHWALIAYAISFIFLFLNFYIRTYKEPKKPKAGKTAMNGISANGVSKSEKQLMIENGKKQKNGKAKGD
modifications: human
- Percent Elongation of 18:3n-3 to 20:3 ([5]; V5-His tagged elongase): 4%
- Percent Elongation of 18:3n-3 to 20:3 [5, 7]: 5%
